Where two headings read alike, the source gives them in different places.
Assay: Pharmacokinetic study, 3 mg/kg IV, 10 mg/kg PO and 10 mg/kg PO QD*3, plasma, liver and bone
Type: in vivo, mouse
Conditions: female, mouse
Experimental: The concentration of compound in plasma, liver, and long bones was detected using liquid chromatography tandem mass spectrometry (LC-MS/MS). Samples were collected after a single intraperitoneal (IP) administration at 30 mg/kg, a single intravenous (IV) administration at 3 mg/kg, a single oral (PO) administration at 10 mg/kg, and a daily PO administration for 3 consecutive days at 10 mg/kg. The compound was formulated in 75% PEG300 + 25% of 40% aq. HPBCD for IV and PO administration and in 60% Phosal + 40% PEG300 for IP administration. All tissue samples were homogenized in water at a tissue weight to water volume ratio 1:3.
IV administration, one 10 mg/kg PO administration and three 10 mg/kg PO administrations (QD*3). a Plasma, b liver and c bone profiles in female mice. The actual concentration (ng/g) is the detected value (ng/mL) multiplied by 4. Drug vehicle is 25% aq. 40% HP-b-CD - 75% PEG300. 3 mice were used per time point. Results are expressed as the mean ± SEM.

Compound: O=C1Nc2ccc(-c3cc(C(F)(F)F)cc(C(F)(F)F)c3)cc2C(=O)N2CCN(C(=O)COc3ccc(OC(F)(F)F)cc3I)C[C@@H]12 [compound 6641]
- concentration at 1 h (C57BL/6J, bone (long bones), po, 10 mg/kg, bone, PO (QD*3), 1 h, individual animals, read-out: Bone 6641 PO (QD*3) concentration): 168 ng/g
- concentration at 3 h (C57BL/6J, bone (long bones), po, 10 mg/kg, bone, PO (QD*3), 3 h, individual animals, read-out: Bone 6641 PO (QD*3) concentration): 337 ng/g
- concentration at 7 h (C57BL/6J, bone (long bones), po, 10 mg/kg, bone, PO (QD*3), 7 h, individual animals, read-out: Bone 6641 PO (QD*3) concentration): 141 ng/g
- concentration at 24 h (C57BL/6J, bone (long bones), po, 10 mg/kg, bone, PO (QD*3), 24 h, individual animals, read-out: Bone 6641 PO (QD*3) concentration): 7.05 ng/g
- concentration at 0.083 h (C57BL/6J, bone (long bones), po, 10 mg/kg, bone, PO, 0.083 h, individual animals, N/A: Below detection level, read-out: Bone 6641 PO concentration): 3.07 ng/g
- concentration at 0.25 h (C57BL/6J, bone (long bones), po, 10 mg/kg, bone, PO, 0.25 h, individual animals, read-out: Bone 6641 PO concentration): 5.39 ng/g
- concentration at 0.5 h (C57BL/6J, bone (long bones), po, 10 mg/kg, bone, PO, 0.5 h, individual animals, read-out: Bone 6641 PO concentration): 27.1 ng/g
- concentration at 1 h (C57BL/6J, bone (long bones), po, 10 mg/kg, bone, PO, 1 h, individual animals, read-out: Bone 6641 PO concentration): 114 ng/g
- concentration at 3 h (C57BL/6J, bone (long bones), po, 10 mg/kg, bone, PO, 3 h, individual animals, read-out: Bone 6641 PO concentration): 140 ng/g
- concentration at 0.083 h (C57BL/6 J, liver, iv, 3 mg/kg, liver, IV, 0.083 h, individual animals, read-out: Liver 6641 IV concentration): 26000 ng/g
- concentration at 0.25 h (C57BL/6 J, liver, iv, 3 mg/kg, liver, IV, 0.25 h, individual animals, read-out: Liver 6641 IV concentration): 17200 ng/g
- concentration at 0.5 h (C57BL/6J, liver, iv, 3 mg/kg, liver, IV, 0.5 h, individual animals, read-out: Liver 6641 IV concentration): 8740 ng/g
- concentration at 3 h (C57BL/6J, liver, iv, 3 mg/kg, liver, IV, 3 h, individual animals, read-out: Liver 6641 IV concentration): 1570 ng/g
- concentration at 7 h (C57BL/6 J, liver, iv, 3 mg/kg, liver, IV, 7 h, individual animals, read-out: Liver 6641 IV concentration): 474 ng/g
- concentration at 24 h (C57BL/6 J, liver, iv, 3 mg/kg, liver, IV, 24 h, individual animals, read-out: Liver 6641 IV concentration): 28 ng/g
- concentration at 0.083 h (C57BL/6 J, liver, po, 10 mg/kg, liver, PO (QD*3), 0.083 h, individual animals, read-out: Liver 6641 PO (QD*3) concentration): 44.1 ng/g
- concentration at 1 h (C57BL/6J, liver, po, 10 mg/kg, liver, PO (QD*3), 1 h, individual animals, read-out: Liver 6641 PO (QD*3) concentration): 3320 ng/g
- concentration at 3 h (C57BL/6J, liver, po, 10 mg/kg, liver, PO (QD*3), 3 h, individual animals, read-out: Liver 6641 PO (QD*3) concentration): 1900 ng/g
- concentration at 7 h (C57BL/6 J, liver, po, 10 mg/kg, liver, PO (QD*3), 7 h, individual animals, read-out: Liver 6641 PO (QD*3) concentration): 1010 ng/g
- concentration at 24 h (C57BL/6 J, liver, po, 10 mg/kg, liver, PO (QD*3), 24 h, individual animals, read-out: Liver 6641 PO (QD*3) concentration): 32.3 ng/g
- concentration at 0.083 h (C57BL/6 J, liver, po, 10 mg/kg, liver, PO, 0.083 h, individual animals, N/A: Below detection level, read-out: Liver 6641 PO concentration): 5.14 ng/g
- concentration at 0.25 h (C57BL/6 J, liver, po, 10 mg/kg, liver, PO, 0.25 h, individual animals, read-out: Liver 6641 PO concentration): 321 ng/g
- concentration at 1 h (C57BL/6J, liver, po, 10 mg/kg, liver, PO, 1 h, individual animals, read-out: Liver 6641 PO concentration): 3040 ng/g
- concentration at 3 h (C57BL/6J, liver, po, 10 mg/kg, liver, PO, 3 h, individual animals, read-out: Liver 6641 PO concentration): 1940 ng/g
- concentration at 7 h (C57BL/6 J, liver, po, 10 mg/kg, liver, PO, 7 h, individual animals, read-out: Liver 6641 PO concentration): 1210 ng/g
- concentration at 24 h (C57BL/6 J, liver, po, 10 mg/kg, liver, PO, 24 h, individual animals, read-out: Liver 6641 PO concentration): 28.5 ng/g
- concentration at 48 h (C57BL/6 J, liver, po, 10 mg/kg, liver, PO, 48 h, individual animals, read-out: Liver 6641 PO concentration): 2.88 ng/g
- concentration at 0.083 h (C57BL/6 J, plasma, iv, 3 mg/kg, IV, Time 0.083 h, individual values (1)-(3), read-out: Plasma concentration): 2030 ng/mL
- concentration at 0.25 h (C57BL/6 J, plasma, iv, 3 mg/kg, IV, Time 0.25 h, individual values (1)-(3), read-out: Plasma concentration): 1260 ng/mL
- concentration at 0.5 h (C57BL/6 J, plasma, iv, 3 mg/kg, IV, Time 0.5 h, individual values (1)-(3), read-out: Plasma concentration): 721 ng/mL
- concentration at 1 h (C57BL/6 J, plasma, iv, 3 mg/kg, IV, Time 1 h, individual values (1)-(3), read-out: Plasma concentration): 343 ng/mL
- concentration at 3 h (C57BL/6 J, plasma, iv, 3 mg/kg, IV, Time 3 h, individual values (1)-(3), read-out: Plasma concentration): 220 ng/mL
- concentration at 7 h (C57BL/6 J, plasma, iv, 3 mg/kg, IV, Time 7 h, individual values (1)-(3), read-out: Plasma concentration): 67.6 ng/mL
- concentration at 24 h (C57BL/6 J, plasma, iv, 3 mg/kg, IV, Time 24 h, individual values (1)-(3), read-out: Plasma concentration): 4.37 ng/mL
- concentration at 48 h (C57BL/6 J, plasma, iv, 3 mg/kg, IV, Time 48 h, individual values (1)-(3), N/A: Below detection level, read-out: Plasma concentration): 0.874 ng/mL
- concentration at 0.083 h (C57BL/6 J, plasma, po, 10 mg/kg, PO (QD*3), Time 0.083 h, individual values (1)-(3), read-out: Plasma concentration): 8.04 ng/mL
- concentration at 0.25 h (C57BL/6 J, plasma, po, 10 mg/kg, PO (QD*3), Time 0.25 h, individual values (1)-(3), read-out: Plasma concentration): 95.9 ng/mL
- concentration at 1 h (C57BL/6 J, plasma, po, 10 mg/kg, PO (QD*3), Time 1 h, individual values (1)-(3), read-out: Plasma concentration): 336 ng/mL
- concentration at 3 h (C57BL/6 J, plasma, po, 10 mg/kg, PO (QD*3), Time 3 h, individual values (1)-(3), read-out: Plasma concentration): 264 ng/mL
- concentration at 7 h (C57BL/6 J, plasma, po, 10 mg/kg, PO (QD*3), Time 7 h, individual values (1)-(3), read-out: Plasma concentration): 144 ng/mL
- concentration at 24 h (C57BL/6 J, plasma, po, 10 mg/kg, PO (QD*3), Time 24 h, individual values (1)-(3), read-out: Plasma concentration): 5.56 ng/mL
- concentration at 48 h (C57BL/6 J, plasma, po, 10 mg/kg, PO (QD*3), Time 48 h, individual values (1)-(3), N/A: Below detection level, read-out: Plasma concentration): 1.04 ng/mL
- concentration at 0.083 h (C57BL/6 J, plasma, po, 10 mg/kg, PO, Time 0.083 h, individual values (1)-(3), N/A: Below detection level, read-out: Plasma concentration): 1.64 ng/mL
- concentration at 0.25 h (C57BL/6 J, plasma, po, 10 mg/kg, PO, Time 0.25 h, individual values (1)-(3), read-out: Plasma concentration): 43.8 ng/mL
- concentration at 1 h (C57BL/6 J, plasma, po, 10 mg/kg, PO, Time 1 h, individual values (1)-(3), read-out: Plasma concentration): 369 ng/mL
- concentration at 3 h (C57BL/6 J, plasma, po, 10 mg/kg, PO, Time 3 h, individual values (1)-(3), read-out: Plasma concentration): 219 ng/mL
- concentration at 7 h (C57BL/6 J, plasma, po, 10 mg/kg, PO, Time 7 h, individual values (1)-(3), read-out: Plasma concentration): 134 ng/mL
- concentration at 24 h (C57BL/6 J, plasma, po, 10 mg/kg, PO, Time 24 h, individual values (1)-(3), read-out: Plasma concentration): 4.25 ng/mL
- concentration at 48 h (C57BL/6 J, plasma, po, 10 mg/kg, PO, Time 48 h, individual values (1)-(3), N/A: Below detection level, read-out: Plasma concentration): 1.39 ng/mL

— PMC9636434, “Discovery of small molecule agonists of the Relaxin Family Peptide Receptor 2” (Communications Biology, 2022)
